Results: ChEMBL document CHEMBL1629707, “Naphthalimide based novel organoselenocyanates: finding less toxic forms of selenium that would retain protective efficacy” (Bioorg Med Chem Lett, 2010)

Tests used:
Mus musculus [1] = test: Increase of GST level in Swiss albino mouse liver assessed as CDNB-GSH conjugate per mg of protein at 3 mg/kg, po after 30 days (reference value: 95.66+/-4.0 nmol/min); format: functional
Mus musculus [2] = test: Increase of GSH level in Swiss albino mouse liver assessed per mg of protein at 3 mg/kg, po after 30 days (reference value: 46.87+/-1.88 nmol); format: functional
Mus musculus [3] = test: Increase of SOD level in Swiss albino mouse liver assessed per mg of protein at 3 mg/kg, po after 30 days (reference value: 250.16+/-7.46 U); format: functional
Mus musculus [4] = test: Increase of CAT level in Swiss albino mouse liver assessed per mg of protein at 3 mg/kg, po after 30 days (reference value: 41.66+/-1.33 U); format: functional
Mus musculus [5] = test: Increase of Gpx level in Swiss albino mouse liver assessed as NADPH oxidation per mg of protein at 3 mg/kg, po after 30 days (reference value: 0.646+/-0.030 umol); format: functional
Mus musculus [6] = test: Increase of TRxR level in Swiss albino mouse liver assessed per mg of protein at 3 mg/kg, po after 30 days (reference value: 3.20+/-0.134 U); format: functional
[7] = Toxicity in po dosed Swiss albino mouse; format: organism-based; details: in vivo
Mus musculus [8] = test: Toxicity in Swiss albino mouse assessed as loss of body weight at 3 mg/kg, po administered for 30 days; format: organism-based; parameters: dose 3 mg/kg, route oral; details: in vivo, 720 h
Mus musculus [9] = test: Toxicity in Swiss albino mouse assessed as decrease in final body weight at 1.2 mg/kg, po administered for 30 days; format: organism-based; parameters: dose 1.2 mg/kg, route oral; details: in vivo, 720 h
Mus musculus [10] = test: Toxicity in Swiss albino mouse assessed as hemoglobin level at 3 mg/kg, po after 30 days (reference value: 12.56+/-0.43 gm/dL); format: organism-based; parameters: dose 3 mg/kg, route oral; details: in vivo, 720 h
Mus musculus [11] = test: Hepatotoxicity in Swiss albino mouse assessed as TBARS production per mg of protein at 3 mg/kg, po after 30 days (reference value: 0.26+/-0.02 nmol); format: toxicity, organism-based; parameters: dose 3 mg/kg, route oral; details: in vivo, 720 h
Mus musculus [12] = test: Hepatotoxicity in Swiss albino mouse assessed as plasma ALT level at 3 mg/kg, po after 30 days (reference value: 66.00+/-4.18 U/mL); format: toxicity, organism-based; parameters: dose 3 mg/kg, route oral; details: in vivo, 720 h
Mus musculus [13] = test: Hepatotoxicity in Swiss albino mouse assessed as plasma AST level at 3 mg/kg, po after 30 days (reference value: 179.00+/-4.18 U/mL); format: toxicity, organism-based; parameters: dose 3 mg/kg, route oral; details: in vivo, 720 h
Mus musculus [14] = test: Nephrotoxicity in Swiss albino mouse assessed as BUN level at 3 mg/kg, po after 30 days (reference value: 21.57+/-0.92 mg/dL); format: toxicity, organism-based; parameters: dose 3 mg/kg, route oral; details: in vivo, 720 h
Mus musculus [15] = test: Nephrotoxicity in Swiss albino mouse assessed as serum creatinine level at 3 mg/kg, po after 30 days (reference value: 9.40+/-0.48 mg/dL); format: toxicity, organism-based; parameters: dose 3 mg/kg, route oral; details: in vivo, 720 h
[16] = Induction of chromosomal aberration in Swiss albino mouse bone marrow cell at 3 mg/kg, po after 30 days (reference value: 14.88+/-0.99 %); format: organism-based; parameters: dose 3 mg/kg, route oral; details: in vivo, 720 h
Mus musculus [17] = test: Nephrotoxicity in Swiss albino mouse assessed as inflammation at 3 mg/kg, po after 30 days by histopathology analysis; format: toxicity, organism-based; parameters: dose 3 mg/kg, route oral; details: in vivo, 720 h
Mus musculus [18] = test: Nephrotoxicity in Swiss albino mouse assessed as lesion at 3 mg/kg, po after 30 days by histopathology analysis; format: toxicity, organism-based; parameters: dose 3 mg/kg, route oral; details: in vivo, 720 h
Mus musculus [19] = test: Increase of Gpx level in Swiss albino mouse liver assessed as NADPH oxidation per mg of protein at 3 mg/kg, po after 30 days relative to control; format: functional
Mus musculus [20] = test: Increase of TRxR level in Swiss albino mouse liver assessed per mg of protein at 3 mg/kg, po after 30 days relative to control; format: functional
Mus musculus [21] = test: Hepatotoxicity in Swiss albino mouse assessed as necrosis at 3 mg/kg, po after 30 days by histopathology analysis; format: toxicity, organism-based; parameters: dose 3 mg/kg, route oral; details: in vivo, 720 h
Mus musculus [22] = test: Hepatotoxicity in Swiss albino mouse assessed as inflammation at 3 mg/kg, po after 30 days by histopathology analysis; format: toxicity, organism-based; parameters: dose 3 mg/kg, route oral; details: in vivo, 720 h
Mus musculus [23] = test: Hepatotoxicity in Swiss albino mouse assessed as lesion at 3 mg/kg, po after 30 days by histopathology analysis; format: toxicity, organism-based; parameters: dose 3 mg/kg, route oral; details: in vivo, 720 h
Mus musculus [24] = test: Nephrotoxicity in Swiss albino mouse assessed as necrosis at 3 mg/kg, po after 30 days by histopathology analysis; format: toxicity, organism-based; parameters: dose 3 mg/kg, route oral; details: in vivo, 720 h
Mus musculus [25] = test: Hepatotoxicity in Swiss albino mouse assessed as infiltration of mononuclear cells at 1.2 mg/kg after 30 days by histopathology analysis; format: toxicity, organism-based; parameters: dose 1.2 mg/kg; details: in vivo, 720 h
Mus musculus [26] = test: Nephrotoxicity in Swiss albino mouse assessed as infiltration of mononuclear cells at 1.2 mg/kg after 30 days by histopathology analysis; format: toxicity, organism-based; parameters: dose 1.2 mg/kg; details: in vivo, 720 h
Mus musculus [27] = test: Increase of GSH level in Swiss albino mouse liver assessed per mg of protein at 1.2 mg/kg, po after 30 days (reference value: 46.87+/-1.88 nmol); format: functional
Mus musculus [28] = test: Increase of GST level in Swiss albino mouse liver assessed as CDNB-GSH conjugate per mg of protein at 1.2 mg/kg, po after 30 days (reference value: 95.66+/-4.0 nmol/min); format: functional
Mus musculus [29] = test: Toxicity in Swiss albino mouse assessed as hemoglobin level at 1.2 mg/kg, po after 30 days (reference value: 12.56+/-0.43 gm/dL); format: organism-based; parameters: dose 1.2 mg/kg, route oral; details: in vivo, 720 h
Mus musculus [30] = test: Hepatotoxicity in Swiss albino mouse assessed as TBARS production per mg of protein at 1.2 mg/kg, po after 30 days (reference value: 0.26+/-0.02 nmol); format: toxicity, organism-based; parameters: dose 1.2 mg/kg, route oral; details: in vivo, 720 h
Mus musculus [31] = test: Hepatotoxicity in Swiss albino mouse assessed as plasma ALT level at 1.2 mg/kg, po after 30 days (reference value: 66.00+/-4.18 U/mL); format: toxicity, organism-based; parameters: dose 1.2 mg/kg, route oral; details: in vivo, 720 h
Mus musculus [32] = test: Hepatotoxicity in Swiss albino mouse assessed as plasma AST level at 1.2 mg/kg, po after 30 days (reference value: 179.00+/-4.18 U/mL); format: toxicity, organism-based; parameters: dose 1.2 mg/kg, route oral; details: in vivo, 720 h
Mus musculus [33] = test: Nephrotoxicity in Swiss albino mouse assessed as BUN level at 1.2 mg/kg, po after 30 days (reference value: 21.57+/-0.92 mg/dL); format: toxicity, organism-based; parameters: dose 1.2 mg/kg, route oral; details: in vivo, 720 h
Mus musculus [34] = test: Nephrotoxicity in Swiss albino mouse assessed as serum creatinine level at 1.2 mg/kg, po after 30 days (reference value: 9.40+/-0.48 mg/dL); format: toxicity, organism-based; parameters: dose 1.2 mg/kg, route oral; details: in vivo, 720 h
[35] = Induction of chromosomal aberration in Swiss albino mouse bone marrow cell at 1.2 mg/kg, po after 30 days (reference value: 14.88+/-0.99 %); format: organism-based; parameters: dose 1.2 mg/kg, route oral; details: in vivo, 720 h
Mus musculus [36] = test: Increase of SOD level in Swiss albino mouse liver assessed per mg of protein at 1.2 mg/kg, po after 30 days (reference value: 250.16+/-7.46 U); format: functional
Mus musculus [37] = test: Increase of CAT level in Swiss albino mouse liver assessed per mg of protein at 1.2 mg/kg, po after 30 days (reference value: 41.66+/-1.33 U); format: functional
Mus musculus [38] = test: Increase of Gpx level in Swiss albino mouse liver assessed as NADPH oxidation per mg of protein at 1.2 mg/kg, po after 30 days (reference value: 0.646+/-0.030 umol); format: functional
Mus musculus [39] = test: Increase of TRxR level in Swiss albino mouse liver assessed per mg of protein at 1.2 mg/kg, po after 30 days (reference value: 3.20+/-0.134 U); format: functional

SMILES | Activity (Mus musculus [1]) [nM] | Activity (Mus musculus [2]) [nM] | Activity (Mus musculus [3]) [U] | Activity (Mus musculus [4]) [U] | Activity (Mus musculus [5]) [U] | Activity (Mus musculus [6]) [U] | LD50 [7] [mg/kg] | Activity (Mus musculus [8]) | Activity (Mus musculus [9]) | Activity (Mus musculus [10]) [g/dL] | Activity (Mus musculus [11]) [nM] | Activity (Mus musculus [12]) [U/ml] | Activity (Mus musculus [13]) [U/ml] | Activity (Mus musculus [14]) [mg/dL] | Activity (Mus musculus [15]) [mg/dL] | Activity [16] [%] | other results
N#C[Se]CCCCCN1C(=O)c2cccc3cccc(c23)C1=O | 104.41 | 50.94 | 258.56 | 45.48 | 0.864 | 4.61 | > 1000 | Non-toxic | Toxic | 13.08 | 0.24 | 61 | 160 | 160 | 6.4 | 13.39 | –
N#C[Se]CCCCCN1C(=O)c2cccc3c(Cl)ccc(c23)C1=O | 106.58 | 59.34 | 268.71 | 46.6 | 0.995 | 4.21 | > 1000 | Non-toxic | Toxic | 12.86 | 0.26 | 64 | 142 | 142 | 7.45 | 13.97 | –
N#C[Se]CCCCCN1C(=O)c2cccc3cc([N+](=O)[O-])cc(c23)C1=O | 97.29 | 55.82 | 267.68 | 44.06 | 0.938 | 4.15 | > 1000 | Non-toxic | Toxic | 12.76 | 0.25 | 62 | 154 | – | 7.86 | 13.85 | –
N#C[Se]CCCCCN1C(=O)c2cccc3c(N)ccc(c23)C1=O | 116.19 | 60.4 | 296.03 | 53.04 | – | – | > 1000 | Non-toxic | Toxic | 13.24 | 0.22 | 59 | 148 | 148 | 7.13 | 12.7 | Activity (Mus musculus [17]): Non-toxic; Activity (Mus musculus [18]): Non-toxic; Activity (Mus musculus [19]): 63.77%; Activity (Mus musculus [20]): 53.43%; Activity (Mus musculus [21]): Non-toxic; Activity (Mus musculus [22]): Non-toxic; Activity (Mus musculus [23]): Non-toxic; Activity (Mus musculus [24]): Non-toxic
O=[Se]([O-])[O-].[Na+].[Na+] [SODIUM SELENITE] | – | – | – | – | – | – | 25 | – | – | – | – | – | – | – | – | – | Activity (Mus musculus [25]): Toxic; Activity (Mus musculus [26]): Toxic; Activity (Mus musculus [27]): 44.84 nM; Activity (Mus musculus [28]): 85.31 nM; Activity (Mus musculus [29]): 11.28 g/dL; Activity (Mus musculus [30]): 0.3 nM; Activity (Mus musculus [31]): 72 U/ml; Activity (Mus musculus [32]): 191 U/ml; Activity (Mus musculus [33]): 22.6 mg/dL; Activity (Mus musculus [34]): 8.47 mg/dL; Activity [35]: 16.4%; Activity (Mus musculus [36]): 236.98 U; Activity (Mus musculus [37]): 36.6 U; Activity (Mus musculus [38]): 0.692 U; Activity (Mus musculus [39]): 3.75 U
